Test results: PubChem BioAssay AID1259407 (Chemical Carcinogenesis Research Information System (CCRIS), 2018)
Activity calls are given as the source filed them. No rule for the calls is given here.

Test system: CCRIS mutagenicity, Ames/micronucleus/aberration tests
Assay: CCRIS mutagenicity studies
[1] = Test System: AMES SALMONELLA TYPHIMURIUM, Strain/Indicator: TA98, Metabolic Activation: NONE, Method: STANDARD PLATE
[2] = Test System: AMES SALMONELLA TYPHIMURIUM, Strain/Indicator: TA100, Metabolic Activation: NONE, Method: STANDARD PLATE
[3] = Test System: AMES SALMONELLA TYPHIMURIUM, Strain/Indicator: TA1538, Metabolic Activation: NONE, Method: STANDARD PLATE
[4] = Test System: AMES SALMONELLA TYPHIMURIUM, Strain/Indicator: TA100, Metabolic Activation: RAT, LIVER, S-9, AROCLOR 1254, Method: STANDARD PLATE
[5] = Test System: AMES SALMONELLA TYPHIMURIUM, Strain/Indicator: TA98, Method: PREINCUBATION
[6] = Test System: AMES SALMONELLA TYPHIMURIUM, Strain/Indicator: TA100, Metabolic Activation: NONE, Method: PREINCUBATION

For `O=[N+]([O-])c1cc2[nH]c3ccc4c(O)cccc4c3c2c2ccccc12`, the mutagenic call [1] was “active; positive”, the mutagenic call (Test System: AMES SALMONELLA TYPHIMURIUM, Strain/Indicator: TA98, Metabolic Activation: RAT, LIVER, S-9, 3-METHYLCHOLANTHRENE, Method: STANDARD PLATE) was “active; positive” and the mutagenic call [2] was “active; positive”. The mutagenic call (Test System: AMES SALMONELLA TYPHIMURIUM, Strain/Indicator: TA100, Metabolic Activation: RAT, LIVER, S-9, 3-METHYLCHOLANTHRENE, Method: STANDARD PLATE) was “active; positive”.

In the case of `CCOC(=O)C(=NNc1ccc(-c2ccc(NN=C(C(=O)OCC)C(=O)OCC)c(Cl)c2)cc1Cl)C(=O)OCC`, the mutagenic call (Test System: AMES SALMONELLA TYPHIMURIUM, Strain/Indicator: TA98, Metabolic Activation: HAMSTER, LIVER, S-9, Method: PREINCUBATION (PRIVAL METHOD)) is reported as “inactive; negative” and the mutagenic call (Test System: AMES SALMONELLA TYPHIMURIUM, Strain/Indicator: TA98, Metabolic Activation: NONE, Method: PREINCUBATION (PRIVAL METHOD)) is reported as “inactive; negative”.

`O=C(Nc1ccc(Br)cc1)c1cc(Br)cc(Br)c1O` was tested, and the mutagenic call [1] was “inactive; negative”, the mutagenic call (Test System: AMES SALMONELLA TYPHIMURIUM, Strain/Indicator: TA98, Metabolic Activation: RAT, LIVER, S-9, KANECHLOR 400, Method: STANDARD PLATE) was “inactive; negative” and the mutagenic call [2] was “inactive; negative”. The mutagenic call (Test System: AMES SALMONELLA TYPHIMURIUM, Strain/Indicator: TA100, Metabolic Activation: RAT, LIVER, S-9, KANECHLOR 400, Method: STANDARD PLATE) was “inactive; negative”, the mutagenic call (Test System: AMES SALMONELLA TYPHIMURIUM, Strain/Indicator: TA1535, Metabolic Activation: NONE, Method: STANDARD PLATE) was “inactive; negative” and the mutagenic call (Test System: AMES SALMONELLA TYPHIMURIUM, Strain/Indicator: TA1535, Metabolic Activation: RAT, LIVER, S-9, KANECHLOR 400, Method: STANDARD PLATE) was “inactive; negative”. For the same molecule, the mutagenic call (Test System: AMES SALMONELLA TYPHIMURIUM, Strain/Indicator: TA1537, Metabolic Activation: NONE, Method: STANDARD PLATE) was “inactive; negative”, the mutagenic call (Test System: AMES SALMONELLA TYPHIMURIUM, Strain/Indicator: TA1537, Metabolic Activation: RAT, LIVER, S-9, KANECHLOR 400, Method: STANDARD PLATE) was “inactive; negative” and the mutagenic call [3] was “inactive; negative”. For the same molecule, the mutagenic call (Test System: AMES SALMONELLA TYPHIMURIUM, Strain/Indicator: TA1538, Metabolic Activation: RAT, LIVER, S-9, KANECHLOR 400, Method: STANDARD PLATE) was “inactive; negative”.

With `CCCOc1cc(N=Nc2ccc(N(CCO)CCO)cc2)ccc1N=Nc1c(S(=O)(=O)O)cc2ccc(N)cc2c1O` the mutagenic call [1] was “inactive; negative”, the mutagenic call (Test System: AMES SALMONELLA TYPHIMURIUM, Strain/Indicator: TA98, Metabolic Activation: RAT, LIVER, S-9, AROCLOR 1254, Method: STANDARD PLATE) was “active; positive” and the mutagenic call [2] was “inactive; negative”. The mutagenic call [4] was “inactive; negative”, the mutagenic call [3] was “inactive; negative” and the mutagenic call (Test System: AMES SALMONELLA TYPHIMURIUM, Strain/Indicator: TA1538, Metabolic Activation: RAT, LIVER, S-9, AROCLOR 1254, Method: STANDARD PLATE) was “active; positive”.

With `c1cncc(-c2cccnc2)c1` the mutagenic call (Test System: AMES SALMONELLA TYPHIMURIUM, Strain/Indicator: TA97, Metabolic Activation: RAT, LIVER, S-9, PHENOBARBITAL, Method: STANDARD PLATE) was “inactive; negative”, the mutagenic call (Test System: AMES SALMONELLA TYPHIMURIUM, Strain/Indicator: TA98, Metabolic Activation: RAT, LIVER, S-9, PHENOBARBITAL, Method: STANDARD PLATE) was “inactive; negative” and the mutagenic call (Test System: AMES SALMONELLA TYPHIMURIUM, Strain/Indicator: TA100, Metabolic Activation: RAT, LIVER, S-9, PHENOBARBITAL, Method: STANDARD PLATE) was “active; positive”. For the same molecule, the mutagenic call (Test System: AMES SALMONELLA TYPHIMURIUM, Strain/Indicator: TA1535, Metabolic Activation: RAT, LIVER, S-9, PHENOBARBITAL, Method: STANDARD PLATE) was “inactive; negative”, the mutagenic call (Test System: AMES SALMONELLA TYPHIMURIUM, Strain/Indicator: TA1537, Metabolic Activation: RAT, LIVER, S-9, PHENOBARBITAL, Method: STANDARD PLATE) was “inactive; negative” and the mutagenic call (Test System: AMES SALMONELLA TYPHIMURIUM, Strain/Indicator: TA1538, Metabolic Activation: RAT, LIVER, S-9, PHENOBARBITAL, Method: STANDARD PLATE) was “active; positive”.

`CCCCOc1cc(Cl)ccc1C(=O)NOC(C)=O` was tested, and the mutagenic call [2] was “active; positive” and the mutagenic call (Test System: AMES SALMONELLA TYPHIMURIUM, Strain/Indicator: TA100, Metabolic Activation: RAT, S-9, AROCLOR, Method: STANDARD PLATE) was “active; positive”.

In the case of `Nc1ccc(N=Nc2cccc(N)c2N)cc1`, the mutagenic call [5] is reported as “active; positive” and the mutagenic call (Test System: AMES SALMONELLA TYPHIMURIUM, Strain/Indicator: TA100, Method: PREINCUBATION) is reported as “active; positive”.

In the case of `Fc1ccc2ncccc2c1F`, the mutagenic call (Test System: AMES SALMONELLA TYPHIMURIUM, Strain/Indicator: TA100, Metabolic Activation: RAT LIVER S-9, PHENOBARBITAL AND 5,6-BENZOFLAVONE, Method: PREINCUBATION) is reported as “active; positive”.

With `ClC(Cl)=C(Cl)C(Cl)=C(Cl)Cl` the mutagenic call (End Point: IN VITRO CHROMOSOMAL ABERRATIONS, Test System: CHINESE HAMSTER OVARY CELLS, Metabolic Activation: NONE) was “inactive; negative”, the mutagenic call (End Point: IN VITRO CHROMOSOMAL ABERRATIONS, Test System: CHINESE HAMSTER OVARY CELLS, Metabolic Activation: RAT, LIVER, S-9, AROCLOR 1254) was “inactive; negative” and the mutagenic call (End Point: IN VITRO CHROMOSOMAL ABERRATIONS, Test System: CHL/IU CELLS, Metabolic Activation: NONE) was “active; positive (structural changes)”. The mutagenic call (End Point: IN VITRO MICRONUCLEUS, Test System: CHL/IU CELLS, Metabolic Activation: NONE) was “active; positive”, the mutagenic call [6] was “inactive; negative” and the mutagenic call [2] was “active; positive”. The mutagenic call (Test System: AMES SALMONELLA TYPHIMURIUM, Strain/Indicator: TA100, Metabolic Activation: RAT, LIVER, MICROSOMES AND GLUTATHIONE, Method: PREINCUBATION) was “active; positive”, the mutagenic call (Test System: AMES SALMONELLA TYPHIMURIUM, Strain/Indicator: TA100, Metabolic Activation: RAT, LIVER, S-9, AROCLOR 1254 (30%), Method: PREINCUBATION) was “active; positive” and the mutagenic call [4] was “active; positive”.

In the case of `C[Si](C)(C)CN=[N+]=[N-]`, the mutagenic call [6] is reported as “inactive; negative” and the mutagenic call (Test System: AMES SALMONELLA TYPHIMURIUM, Strain/Indicator: TA100, Metabolic Activation: RAT, LIVER, S-9, PCB, Method: PREINCUBATION) is reported as “active; positive”.

For `C[C@H](CCC(=O)O)[C@H]1CC[C@H]2[C@@H]3[C@H](O)C[C@@H]4C[C@H](O)CC[C@]4(C)[C@H]3C[C@H](O)[C@]12C`, the mutagenic call (Test System: AMES SALMONELLA TYPHIMURIUM, Strain/Indicator: TA98, Metabolic Activation: NONE, Method: PREINCUBATION) was “inactive; negative”, the mutagenic call [5] was “inactive; negative” and the mutagenic call [2] was “inactive; negative”. For the same molecule, the mutagenic call [4] was “inactive; negative”.
